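GI50 marks 50% less growth. At the TGI there is no net growth.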
Columns and labels:
Experiment in all cases: NCI tumour cell line growth inhibition, 384-well format
786-0 renal = test system: 786-0 renal
A498 renal = test system: A498 renal
A549 NSCLC = test system: A549 NSCLC
ACHN renal = test system: ACHN renal
BT-549 breast = test system: BT-549 breast
CAKI-1 renal = test system: CAKI-1 renal
CCRF-CEM leukemia = test system: CCRF-CEM leukemia
COLO 205 colon = test system: COLO 205 colon
DU-145 prostate = test system: DU-145 prostate
EKVX NSCLC = test system: EKVX NSCLC
HCC-2998 colon = test system: HCC-2998 colon
HCT-15 colon = test system: HCT-15 colon
HL-60(TB) leukemia = test system: HL-60(TB) leukemia
HOP-62 NSCLC = test system: HOP-62 NSCLC
HOP-92 NSCLC = test system: HOP-92 NSCLC
HS 578T breast = test system: HS 578T breast
HT29 colon = test system: HT29 colon
KM12 colon = test system: KM12 colon
LOX IMVI melanoma = test system: LOX IMVI melanoma
M14 melanoma = test system: M14 melanoma
MALME-3M melanoma = test system: MALME-3M melanoma
MCF7 breast = test system: MCF7 breast
MDA-MB-231 breast = test system: MDA-MB-231 breast
MDA-MB-435 melanoma = test system: MDA-MB-435 melanoma
MDA-MB-468 breast = test system: MDA-MB-468 breast
MOLT-4 leukemia = test system: MOLT-4 leukemia
NCI-H23 lung = test system: NCI-H23 lung
NCI-H322M lung = test system: NCI-H322M lung
NCI-H460 NSCLC = test system: NCI-H460 NSCLC
NCI-H522 lung = test system: NCI-H522 lung
NCI/ADR-RES ovarian = test system: NCI/ADR-RES ovarian
OVCAR-3 ovarian = test system: OVCAR-3 ovarian
OVCAR-4 ovarian = test system: OVCAR-4 ovarian
OVCAR-8 ovarian = test system: OVCAR-8 ovarian
PC-3 prostate = test system: PC-3 prostate
RPMI-8226 leukemia = test system: RPMI-8226 leukemia
RXF 393 renal = test system: RXF 393 renal
SF-268 CNS = test system: SF-268 CNS
SF-539 CNS = test system: SF-539 CNS
SK-MEL-2 melanoma = test system: SK-MEL-2 melanoma
SK-MEL-28 melanoma = test system: SK-MEL-28 melanoma
SK-MEL-5 melanoma = test system: SK-MEL-5 melanoma
SK-OV-3 ovarian = test system: SK-OV-3 ovarian
SN12C renal = test system: SN12C renal
SNB-19 CNS = test system: SNB-19 CNS
SNB-75 CNS = test system: SNB-75 CNS
SR leukemia = test system: SR leukemia
T-47D breast = test system: T-47D breast
TK-10 renal = test system: TK-10 renal
U251 glioblastoma = test system: U251 glioblastoma
UACC-257 melanoma = test system: UACC-257 melanoma
UACC-62 melanoma = test system: UACC-62 melanoma

Structure (SMILES): CCOC(=O)c1c(NN2CCN(CC(F)(F)F)CC2)oc(/C=C2\C=Nc3ncccc32)c1O
- GI50 (786-0 renal): 3.39 µM
- TGI (786-0 renal): 8.44 µM
- GI50 (A498 renal): 2.75 µM
- TGI (A498 renal): > 100 µM
- GI50 (A549 NSCLC): 5.31 µM
- TGI (A549 NSCLC): > 100 µM
- GI50 (ACHN renal): 5.86 µM
- TGI (ACHN renal): > 100 µM
- GI50 (BT-549 breast): 2.44 µM
- TGI (BT-549 breast): 5.08 µM
- GI50 (CAKI-1 renal): 3.83 µM
- TGI (CAKI-1 renal): > 100 µM
- GI50 (CCRF-CEM leukemia): 0.911 µM
- TGI (CCRF-CEM leukemia): 2.31 µM
- GI50 (COLO 205 colon): 0.373 µM
- TGI (COLO 205 colon): 3.37 µM
- GI50 (DU-145 prostate): 3.08 µM
- TGI (DU-145 prostate): > 100 µM
- GI50 (EKVX NSCLC): 7.51 µM
- TGI (EKVX NSCLC): > 100 µM
- GI50 (HCC-2998 colon): 1.61 µM
- TGI (HCC-2998 colon): 6.01 µM
- GI50 (HCT-15 colon): 5.2 µM
- TGI (HCT-15 colon): > 100 µM
- GI50 (HL-60(TB) leukemia): 1.18 µM
- TGI (HL-60(TB) leukemia): 2.41 µM
- GI50 (HOP-62 NSCLC): 2.86 µM
- TGI (HOP-62 NSCLC): 9.4 µM
- GI50 (HOP-92 NSCLC): > 100 µM
- TGI (HOP-92 NSCLC): > 100 µM
- GI50 (HS 578T breast): 1.55 µM
- TGI (HS 578T breast): 3.21 µM
- GI50 (HT29 colon): 2.5 µM
- TGI (HT29 colon): > 100 µM
- GI50 (KM12 colon): 3.28 µM
- TGI (KM12 colon): 8.02 µM
- GI50 (LOX IMVI melanoma): 3.14 µM
- TGI (LOX IMVI melanoma): 9.61 µM
- GI50 (M14 melanoma): 3.36 µM
- TGI (M14 melanoma): 10.5 µM
- GI50 (MALME-3M melanoma): 3.05 µM
- TGI (MALME-3M melanoma): 9.54 µM
- GI50 (MCF7 breast): 3.69 µM
- TGI (MCF7 breast): 10.2 µM
- GI50 (MDA-MB-231 breast): 5.8 µM
- TGI (MDA-MB-231 breast): > 100 µM
- GI50 (MDA-MB-435 melanoma): 10.8 µM
- TGI (MDA-MB-435 melanoma): 29.4 µM
- GI50 (MDA-MB-468 breast): 3.2 µM
- TGI (MDA-MB-468 breast): 9.71 µM
- GI50 (MOLT-4 leukemia): 1.88 µM
- TGI (MOLT-4 leukemia): 3.37 µM
- GI50 (NCI-H23 lung): 4.83 µM
- TGI (NCI-H23 lung): 18.5 µM
- GI50 (NCI-H322M lung): 4.05 µM
- TGI (NCI-H322M lung): > 100 µM
- GI50 (NCI-H460 NSCLC): 2.23 µM
- TGI (NCI-H460 NSCLC): 4.4 µM
- GI50 (NCI-H522 lung): 1.14 µM
- TGI (NCI-H522 lung): > 100 µM
- GI50 (NCI/ADR-RES ovarian): > 100 µM
- TGI (NCI/ADR-RES ovarian): > 100 µM
- GI50 (OVCAR-3 ovarian): 2.82 µM
- TGI (OVCAR-3 ovarian): > 100 µM
- GI50 (OVCAR-4 ovarian): 96.1 µM
- TGI (OVCAR-4 ovarian): > 100 µM
- GI50 (OVCAR-8 ovarian): 5.48 µM
- TGI (OVCAR-8 ovarian): > 100 µM
- GI50 (PC-3 prostate): 3.64 µM
- TGI (PC-3 prostate): > 100 µM
- GI50 (RPMI-8226 leukemia): 1.96 µM
- TGI (RPMI-8226 leukemia): 4.22 µM
- GI50 (RXF 393 renal): 1.94 µM
- TGI (RXF 393 renal): 3.91 µM
- GI50 (SF-268 CNS): 4.06 µM
- TGI (SF-268 CNS): 11.6 µM
- GI50 (SF-539 CNS): 2.84 µM
- TGI (SF-539 CNS): 9.8 µM
- GI50 (SK-MEL-2 melanoma): 2.62 µM
- TGI (SK-MEL-2 melanoma): 4.86 µM
- GI50 (SK-MEL-28 melanoma): 5.23 µM
- TGI (SK-MEL-28 melanoma): 16.7 µM
- GI50 (SK-MEL-5 melanoma): 2.67 µM
- TGI (SK-MEL-5 melanoma): 14.9 µM
- GI50 (SK-OV-3 ovarian): 2.72 µM
- TGI (SK-OV-3 ovarian): > 100 µM
- GI50 (SN12C renal): 5.42 µM
- TGI (SN12C renal): > 100 µM
- GI50 (SNB-19 CNS): 8.03 µM
- TGI (SNB-19 CNS): > 100 µM
- GI50 (SNB-75 CNS): 6.66 µM
- TGI (SNB-75 CNS): 18.9 µM
- GI50 (SR leukemia): 0.222 µM
- TGI (SR leukemia): 0.488 µM
- GI50 (T-47D breast): > 100 µM
- TGI (T-47D breast): > 100 µM
- GI50 (TK-10 renal): > 100 µM
- TGI (TK-10 renal): > 100 µM
- GI50 (U251 glioblastoma): 2.76 µM
- TGI (U251 glioblastoma): > 100 µM
- GI50 (UACC-257 melanoma): 17.4 µM
- TGI (UACC-257 melanoma): 36.2 µM
- GI50 (UACC-62 melanoma): 2.12 µM
- TGI (UACC-62 melanoma): 3.96 µM

Source: PubChem BioAssay (NCI)
